Assay results reported in patent US20240254138A1, “TRICYCLIC PYRIMIDINES AS CYCLIN-DEPENDENT KINASE 7 (CDK7) INHIBITORS” (JANSSEN PHARMACEUTICA NV, priority 2021, published 2024).
Like-named read-outs stand apart in the source and are kept apart here.

Columns and labels:
[1] = tested on: RNA Polymerase II Serine 5 phosphorylation (Rpb1 CTD, downstream substrate of CDK7) in A549 cells; experiment: Imaging-based cellular RNA PolII Ser5 phosphorylation assay in A549 cells; assay type: cell-based, human; conditions: wild-type CDK7, RNA PolII Ser5 phosphorylation, averaged over all measurements; for IC50: Homo sapiens, A549, A549 cells, read-out: CDK7_A549 Wild-type CDK7 (pIC50) (converted)
Summary of the method: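 IC50 derived by fitting % control (DMSO high, 10 μM reference low) against concentration, with Hill slope. Readout: high-content imaging of phospho-Ser5 Rpb1 CTD antibody staining in fixed, permeabilized A549 cells exposed to compound 3 h after 20 h culture in 1% FBS DMEM.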

[2] = target: CDK7/cyclinH/MAT1 trimeric complex (Homo sapiens, UniProt P50613); experiment: In vitro CDK7 assay, potency of irreversible covalent inhibitors (kinact/KI), coupled PK/LDH ADP readout at 340 nm
[3] = tested on: RNA Polymerase II Serine 5 phosphorylation in A549 cells overexpressing CDK7-mutant (C312S); experiment: Imaging-based cellular RNA PolII Ser5 phosphorylation assay in A549 cells overexpressing CDK7-mutant (C312S); assay type: cell-based, human; conditions: RNA PolII Ser5 phosphorylation, averaged over all measurements; for IC50: Homo sapiens, A549, A549 cells overexpressing CDK7-mutant (C312S), read-out: CDK7_A549 mutant hCDK7(pIC50) (converted)
Summary of the method: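 Readout was automated imaging of anti-phospho-Ser5 Rpb1 CTD immunofluorescence, with IC50 fitted to % control versus concentration. Cells were A549 stably overexpressing non-covalently targetable CDK7 C312S alongside wild-type, exposed to compound 3 h at 37 °C. DMSO and 10 μM reference compound served as controls.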

[4] = CDK7 (20 nM enz.) (KI, μM), 20 nM enzyme
[5] = read-out: CDK7 (20 nM enz.) (kinact, s^−1), 20 nM enzyme
[6] = read-out: CDK7 (20 nM enz.) (kinact/KI, M^−1*s^−1), 20 nM enzyme
[7] = read-out: CDK7 (kinact/KI, M^−1*s^−1), potency of irreversible covalent inhibitors, 1 mM ATP, room temperature, averaged values over all measurements
[8] = read-out: CDK7 (20 nM enz.) (kobs/[I], M^−1*s^−1), 20 nM enzyme

Chain of CDK7/cyclinH/MAT1 trimeric complex (P50613 whole entry): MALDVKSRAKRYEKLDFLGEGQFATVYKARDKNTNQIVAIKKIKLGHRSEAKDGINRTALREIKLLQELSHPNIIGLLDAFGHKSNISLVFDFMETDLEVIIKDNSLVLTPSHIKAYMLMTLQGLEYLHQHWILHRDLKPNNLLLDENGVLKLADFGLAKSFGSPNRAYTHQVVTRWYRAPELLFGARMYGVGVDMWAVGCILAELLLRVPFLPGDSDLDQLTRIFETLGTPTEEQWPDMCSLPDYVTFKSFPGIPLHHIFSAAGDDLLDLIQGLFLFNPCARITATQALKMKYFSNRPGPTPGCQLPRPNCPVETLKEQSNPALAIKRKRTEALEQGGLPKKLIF
Chain of CDK7/cyclinH/MAT1 trimeric complex (P51946 whole entry partner): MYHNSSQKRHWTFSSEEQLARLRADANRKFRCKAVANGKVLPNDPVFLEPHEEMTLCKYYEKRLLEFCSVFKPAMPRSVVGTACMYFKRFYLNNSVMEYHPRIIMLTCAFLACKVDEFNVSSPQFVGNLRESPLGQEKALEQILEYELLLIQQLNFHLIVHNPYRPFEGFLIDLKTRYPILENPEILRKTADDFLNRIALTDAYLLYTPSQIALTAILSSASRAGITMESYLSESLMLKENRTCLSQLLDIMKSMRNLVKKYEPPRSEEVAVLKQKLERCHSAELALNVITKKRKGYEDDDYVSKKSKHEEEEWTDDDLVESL
Chain of CDK7/cyclinH/MAT1 trimeric complex (P51948 whole entry partner): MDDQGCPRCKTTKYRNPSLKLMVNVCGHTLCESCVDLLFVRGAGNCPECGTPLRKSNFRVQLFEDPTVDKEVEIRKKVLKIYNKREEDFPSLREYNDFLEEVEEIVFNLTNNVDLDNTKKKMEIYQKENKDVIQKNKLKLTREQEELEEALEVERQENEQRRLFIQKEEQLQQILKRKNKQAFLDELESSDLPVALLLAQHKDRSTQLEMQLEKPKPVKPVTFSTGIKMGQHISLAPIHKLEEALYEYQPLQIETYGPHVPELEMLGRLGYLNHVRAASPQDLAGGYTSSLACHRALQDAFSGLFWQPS

IC50 [1] [µM] | Ki [2, 4] [µM] | kinact [2, 5] [s⁻¹] | kinact/KI [2, 6] [M⁻¹ s⁻¹] | IC50 [3] [µM] | kinact/KI [2, 8] [M⁻¹ s⁻¹] | Compound | other results
0.398 | – | – | – | > 10 | – | C=CC(=O)N1CC(N2CCC(c3ccc4c(c3)Nc3nccc(N5CCOC[C@@H]5C)c3CO4)CC2)C1 (single isomer, unassigned) [Compound 32] | Ki ([2]; CDK7 (KI(μM)), […], 1 mM ATP, room temperature, averaged values over all measurements): 0.177 µM; kinact ([2]; read-out: CDK7 (kinact, s^−1), kinact = maximal rate of inactivation, 1 mM ATP, room temperature, averaged values over all measurements): 0.000102 s⁻¹; kinact/KI [2, 7]: 578 M⁻¹ s⁻¹
0.158 | 0.0619 | 6.91e-05 | 1120 | > 10 | – | C=CC(=O)N1CC[C@H](N2CCC(c3ccc4c(c3)Nc3nccc(N5CCOCC5)c3CO4)CC2)C1 (single isomer, unassigned) [Compound 38] | kinact/KI [2, 7]: 744 M⁻¹ s⁻¹
< 0.00977 | – | – | – | 0.832 | 1570 | C=CC(=O)N1CC[C@@H](N2CCC(c3ccc4c(c3)Nc3nccc(N5CCOCC5)c3CO4)CC2)C1 (single isomer, unassigned) [Compound 44] | kinact/KI [2, 7]: 602 M⁻¹ s⁻¹
0.0776 | – | – | – | > 10 | 1040 | C=CC(=O)N1CC(N2CC[C@@H](c3ccc4c(c3)Nc3nccc(N5CCOCC5)c3CO4)C[C@@H]2C)C1 (single isomer, unassigned) [Compound 74] | –
0.0794 | – | – | – | > 10 | 1650 | C=CC(=O)N1CC(N2CC[C@H](c3ccc4c(c3)Nc3nccc(N5CCOCC5)c3CO4)C[C@H]2C)C1 (single isomer, unassigned) [Compound 76] | –
0.0603 | – | – | – | > 10 | 923 | C=CC(=O)N1CC(N2CCC(c3ccc4c(c3)Nc3nccc(N5CCOCC5)c3[C@@H](C)O4)CC2)C1 (single isomer, unassigned) [Compound 89] | –
0.126 | 0.0777 | 4.72e-05 | 622 | > 10 | – | C=CC(=O)N1CC(N2CCC(c3ccc4c(c3)Nc3nccc(N5CCOCC5)c3[C@H](C)O4)CC2)C1 (single isomer, unassigned) [Compound 92] | –
0.0661 | 0.0627 | 0.00011 | 1760 | > 10 | 1510 | C=CC(=O)N1CC(N2CCC(c3ccc4c(c3)Nc3nccc(C5CCOCC5)c3[C@@H](C)O4)CC2)C1 (single isomer, unassigned) [Compound 97] | –
1.26 | 0.39 | 5.61e-05 | 144 | > 10 | – | C=CC(=O)N1CC(N2CCC(c3ccc4c(c3)Nc3nccc(C5CCOCC5)c3[C@H](C)O4)CC2)C1 (single isomer, unassigned) [Compound 98] | –
1.17 | 0.431 | 4.85e-05 | 112 | > 10 | – | C=CC(=O)N1CC(N2CCC(c3ccc4c(c3)Nc3nccc(C5CCOCC5)c3[C@H](C)O4)CC2)C1 (single isomer, unassigned) [Compound 104] | –
4.37 | 3.09 | 4.72e-05 | 15.3 | > 10 | – | C#CCCN(C)C/C=C/C(=O)N1CC(N2CCC(c3ccc4c(c3)Nc3nccc(N5CCOCC5)c3[C@@H](C)O4)CC2)C1 (single isomer, unassigned) [Compound 191] | –

Continued, molecule first:

Compound | IC50 [1] [µM] | Ki [2, 4] [µM] | kinact [2, 5] [s⁻¹] | kinact/KI [2, 6] [M⁻¹ s⁻¹] | IC50 [3] [µM] | kinact/KI [2, 8] [M⁻¹ s⁻¹] | other results
C=CC(=O)N1CC[C@@H](N2CC(c3cc(C)c4c(c3)Nc3nccc(C5CCOCC5)c3CO4)C2)[C@H](F)C1 (racemic) [Compound 206] | 0.0933 | 0.0443 | 4.45e-05 | 1000 | > 10 | – | –
C=CC(=O)N1CC(N2CC[C@@H](c3ccc4c(c3)Nc3nccc(N5CCOCC5)c3CO4)[C@H](O)C2)C1 (racemic) [Compound 216] | 0.55 | 0.472 | 6.66e-05 | 141 | > 10 | – | –
C=CC(=O)N1CC[C@H]2CN(c3ccc4c(c3)Nc3nccc(N5CCOCC5)c3CO4)CC[C@H]21 (relative stereo) [Compound 27] | 3.72 | – | – | – | > 10 | – | kinact/KI [2, 7]: 28.7 M⁻¹ s⁻¹
C=CC(=O)N1CC(N2CC[C@H](c3ccc4c(c3)Nc3nccc(N5CCOCC5)c3CO4)C(C)(C)C2)C1 (single isomer, unassigned) [Compound 67] | 0.214 | 0.0862 | 6.48e-05 | 752 | > 10 | – | –
C=CC(=O)N1CC(N2CC[C@@H](c3ccc4c(c3)Nc3nccc(N5CCOCC5)c3CO4)C(C)(C)C2)C1 (single isomer, unassigned) [Compound 69] | 0.234 | – | – | – | > 10 | 529 | –
C=CC(=O)N1CC(N2CCC[C@H](c3ccc4c(c3)Nc3nccc(N5CCOCC5)c3CO4)C2)C1 (single isomer, unassigned) [Compound 93] | 0.447 | 0.0862 | 5.07e-05 | 589 | > 10 | – | –
C=CC(=O)N1CC(N2CC[C@H](c3ccc4c(c3)Nc3nccc(N5CCOCC5)c3CO4)[C@@H](F)C2)C1 (single isomer, unassigned) [Compound 109] | – | – | – | – | – | – | CDK7_A549 Wild-type CDK7 (pIC50) ([1]; A549 cells): 5.55; CDK7 (20 nM enz.) (kinact, s^−1) ([2]; 20 nM enzyme): 1.425e-05 s⁻¹; CDK7 (20 nM enz.) (kinact/KI, M^−1*s^−1) ([2]; 20 nM enzyme): 5.9 M⁻¹ s⁻¹; Ki ([2]; read-out: CDK7 (20 nM enz.) (KI), 20 nM enzyme): 2.42 µM; CDK7_A549 mutant hCDK7(pIC50) ([3]; A549 cells overexpressing CDK7-mutant (C312S)): <5
C=CC(=O)N1CC(N2CCC(c3ccc4c(c3)Nc3nccc(-c5cnn(C)c5)c3[C@@H](C)O4)CC2)C1 (single isomer, unassigned) [Compound 127] | 0.0275 | – | – | – | 8.32 | 1420 | –
C=CC(=O)N1CC[C@@H](N2CCC(c3cc(C)c4c(c3)Nc3nccc(-c5cnn(C)c5)c3CO4)CC2)C1 (single isomer, unassigned) [Compound 134] | 0.038 | – | – | – | ~8.71 | 1530 | –
C=CC(=O)N1CC[C@H](N2CCC(c3cc(C)c4c(c3)Nc3nccc(-c5cnn(C)c5)c3CO4)CC2)C1 (single isomer, unassigned) [Compound 138] | 0.0288 | – | – | – | ~3.72 | 1330 | –
C=CC(=O)N1CC(N2CCC[C@@H](c3ccc4c(c3)Nc3nccc(N5CCOCC5)c3CO4)C2)C1 (single isomer, unassigned) [Compound 145] | 0.977 | 0.872 | 7.9e-05 | 90.6 | > 10 | – | –
C=CC(=O)N1CC[C@@H](N2CC(c3cc(C)c4c(c3)Nc3nccc(N5CCOCC5)c3CO4)C2)C1 (single isomer, unassigned) [Compound 149] | 0.0501 | 0.0542 | 6.66e-05 | 1230 | > 10 | – | –
C=CC(=O)N1CC[C@H](N2CC(c3cc(C)c4c(c3)Nc3nccc(N5CCOCC5)c3CO4)C2)C1 (single isomer, unassigned) [Compound 150] | 0.0468 | 0.0526 | 8.76e-05 | 1660 | 6.03 | – | –
C=CC(=O)N1CCC(N2CC(c3cc(F)c4c(c3)Nc3nccc(C5CCOCC5)c3[C@@H](C)O4)C2)CC1 (single isomer, unassigned) [Compound 153] | 0.0186 | 0.0288 | 3.67e-05 | 1280 | 5.75 | – | –
C=CC(=O)N1CCC(N2CC(c3cc(F)c4c(c3)Nc3nccc(C5CCOCC5)c3[C@H](C)O4)C2)CC1 (single isomer, unassigned) [Compound 155] | 0.501 | 2.09 | 4.59e-05 | 22 | > 10 | – | –
C=CC(=O)N1CC[C@H](N2CCC(c3cc4c(c(C)n3)OCc3c(N5CCOCC5)ccnc3N4)CC2)C1 (single isomer, unassigned) [Compound 183] | 0.0562 | 0.0731 | 5.78e-05 | 791 | > 10 | – | –
C=CC(=O)N1CC[C@@H](N2CCC(c3cc4c(c(C)n3)OCc3c(N5CCOCC5)ccnc3N4)CC2)C1 (single isomer, unassigned) [Compound 184] | 0.0324 | 0.0446 | 6.03e-05 | 1350 | > 10 | – | –
C=CC(=O)N1CC[C@H](N2CC(c3cc(C)c4c(c3)Nc3nccc(-c5cnn(C)c5)c3CO4)C2)C1 (single isomer, unassigned) [Compound 192] | 0.0794 | 0.0907 | 4.14e-05 | 456 | > 10 | – | –
C=CC(=O)N1CC[C@H](N2CC(c3cc(C)c4c(c3)Nc3nccc(C5CCOCC5)c3CO4)C2)C1 (single isomer, unassigned) [Compound 193] | 0.0692 | 0.063 | 3.66e-05 | 581 | > 10 | – | –
